The values below are quoted from earlier work in US5681738A, “Use of 10-oxo-trans-8-decenoic acid in mushroom cultivation” (The Penn State Research Foundation, priority 1992, dated 1997).

The subject of this series is seed chamber of runner bean. Particulars: Zimmerman et al., (1979); cited from earlier work.

`O=C/C=C/CCCCCCCCC(=O)O` [12-Oxo-trans-10-dodecenoic acid]: the “formation of an intumescence on seed chamber (in words)” value is on record as “found to induce the formation of an intumescence”.
